Source: patent US5876715A, “Antibodies that bind novel carbohydrate ligands (myelorollins) that cause E-selectin dependent cell rolling, and uses thereof” (The Biomembrane Institute, priority 1996, dated 1999)
Entries after “also recorded” stand apart in the source; their conditions may differ.

How the values were obtained:
[1] = target: T1, E-selectin-Ig fusion protein (Homo sapiens, UniProt P16581); experiment: Direct binding of ganglioside-coated latex beads to E-selectin-Ig coated fluorescent beads by flow cytometry; settings: ganglioside-coated latex beads mixed with E-selectin-Ig fluorescent beads
T1 construct: Fc is only a tag
T1 sequence (P16581 22-610): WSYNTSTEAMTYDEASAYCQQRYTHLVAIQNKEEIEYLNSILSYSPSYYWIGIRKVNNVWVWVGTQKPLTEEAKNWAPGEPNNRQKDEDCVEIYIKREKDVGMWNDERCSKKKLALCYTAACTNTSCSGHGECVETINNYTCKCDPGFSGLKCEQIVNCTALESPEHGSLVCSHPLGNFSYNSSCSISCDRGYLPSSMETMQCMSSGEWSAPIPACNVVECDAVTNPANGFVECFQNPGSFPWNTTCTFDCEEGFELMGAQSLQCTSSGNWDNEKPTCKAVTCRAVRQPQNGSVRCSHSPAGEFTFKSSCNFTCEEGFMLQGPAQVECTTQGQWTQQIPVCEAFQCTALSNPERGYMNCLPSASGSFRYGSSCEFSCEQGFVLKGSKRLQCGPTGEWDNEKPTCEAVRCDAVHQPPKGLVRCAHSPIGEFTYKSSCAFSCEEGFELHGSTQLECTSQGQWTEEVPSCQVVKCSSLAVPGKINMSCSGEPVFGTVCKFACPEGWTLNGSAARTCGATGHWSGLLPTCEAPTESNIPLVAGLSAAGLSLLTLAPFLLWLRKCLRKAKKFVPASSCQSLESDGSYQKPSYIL
Protocol: 5×10^6 polystyrene latex beads (diameter […]) (IDC Spheres™; IDC, Portland, Oreg.) were washed with ethanol by centrifugation. 1 μg of GSL in 50 μL of ethanol was added to the washed beads and the mixture was evaporated under nitrogen stream. The beads were resuspended in 1% BSA in PBS(+) and washed twice by centrifugation. Washed beads were blocked with 3% BSA in PBS(+) at room temperature for 2 hr. After centrifugation, beads were resuspended in 1% BSA in PBS(+) with 0.1% azide and stored at 4° C. Yellow-green fluorescent sulfated latex beads (diameter 1 μm) (Molecular Probes, Inc., Portland, Oreg.) were coated with goat anti-human IgG (Fc-fragment specific) antibody (Jackson Immunoresearch Lab, West Grove, Pa.) according to manufacturer's protocol. After washing 3× with PBS, beads were blocked with 3% BSA in PBS at 4° C. for 2 hr. Blocked beads (about 5×10^8) were mixed with 1.5 mL of E- or P-selectin-Ig fusion protein containing culture supernatant (about 1 μg/mL fusion protein) from CHO transfectants (Handa et al., 1995 Int. J. Oncol. 6:773-781) with a blood mixer at 4° C. for 6-18 hr. This mixing procedure was repeated 3 times more using new culture supernatant containing the fusion protein. After washing with PBS, beads were incubated in 1 mL PBS containing 50 μg human IgG (Jackson Immunoresearch). For preparation of control beads, human IgG was used at 1 μg/mL, instead of fusion protein. The ganglioside-coated beads were mixed with the fluorescent beads at room temperature for various durations. The resulting suspension was subjected to flow cytometric analysis. Conditions of each assay are detailed below.
Adhesion under conditions of E- or P-selectin-binding to various gangliosides was assessed by a novel, sensitive method using E- or P-selectin-coated fluorescent beads (FIGS. 2 and 3). Adhesion was determined by aggregation of polystyrene beads coated with myelorollin, and selectin-coated fluorescent beads. Gangliosides were coated on non-fluorescent polystyrene beads and mixed with fluorescent beads coated with E- or P-selectin in the presence or absence of EDTA. Since aggregation occurs under brief, strong agitation, the process is neither "static" nor "dynamic" adhesion, in which myelorollin is presented as immovable solid phase. In this system, solid phases containing both myelorollin and selectin are in dynamic condition. Binding was determined by cytofluorometry. Ganglioside fractions used in this experiment were the same as described in Table 1. In addition: Sdiy^2, sialosyl Le^x -Le^x (VI^3 NeuAcV^3 FucIII^3 FucnLc6 Cer); SLe^x (IV^3 NeuAcIII^3 FucnLc4 Cer). These designated structures are based on ^1 H NMR, mass spectrometry. Binding index was defined as mean fluorescence intensity (MFI) of ganglioside fraction divided by MFI of sialylparagloboside (IV^3 NeuAcnLc4 Cer).
Referring to FIG. 2: open columns, E-selectin-IgG beads. Lighter shaded columns, E-selectin-IgG beads in the presence of 5 mM EDTA. Darker shaded columns, P-selectin-IgG beads. Solid columns, human IgG control beads. The binding of myelorollin to E-selectin beads was completely abolished in the presence of EDTA; myelorollin was unable to bind to P-selectin.
Binding index was defined as MFI of sample divided by MFI of sialylparagloboside as in FIG. 2. Open columns, E-selectin-IgG beads preincubated with control mouse IgG. Solid columns, E-selectin-IgG beads preincubated with mAb E1C. […]

[2] = test system: CHO cells permanently expressing E-selectin; settings: TLC overlay, Stroud et al. 1995, 1996; cited from earlier work

Substance | binding to E-selectin beads (binding index, MFI relative to sialylparagloboside) [1] | E-selectin binding/adhesion under static conditions in previous studies [2] | binding to E-selectin beads (binding index, MFI relative to sialylparagloboside) ([1]; listed as Str. 3) | binding to E-selectin beads (binding index, MFI relative to sialylparagloboside) ([1]; listed as Str. 1)
X^3 NeuAcVII^3 FucV^3 FucnLc10 Cer [Fr. 13-1] | clear binding; also recorded: bind strongly to E-selectin | capable of binding E-selectin under static conditions |  | 
VI^3 NeuAcV^3 FucIII^3 FucnLc6 Cer [SLe^x -Le^x, reference compound] |  |  | did show binding; also recorded: bound to E-selectin | 
VI^3 NeuAcnLc6 Cer [Fr. 7] | no binding to E-selectin |  |  | no binding whatsoever
X^3 NeuAcVII^3 FucnLc10 Cer [Fr. 12-2] | weak adhesion |  |  | 
